Values joined by “and” are separate entries in the source; they are usually repeats but may differ in a detail not shown here. Identical values can stand only once. Like-named read-outs stand apart in the source and are kept apart here.
Tests used:
[1] = tested on: rabbit corporal smooth muscle (CSM) strip; assay: Organ bath relaxation of phenylephrine-pre-contracted rabbit corpus cavernosal strips; parameters: species or system New Zealand white rabbits; conditions: for relaxation, % of the phenylephrine (PE)-induced contraction: concentration-response; for % relaxation of the phenylephrine-induced contraction: synergy experiment
Text: Sexually mature male New Zealand white rabbits (3.0±0.3 kg) were killed with an air embolism in the ear vein. The entire penis was then surgically excised, and then cleaned by removing the […] and urethra. Then, the corporal tissue was carefully dissected from the surrounding tunica. Four corpus cavernosal strips with approximately equal sizes (2×2×10 mm) were obtained from each penis.
Rabbit corpus cavernosal strips were separately prepared for organ-bath studies. Each corporal strip was mounted in a 10 ml-organ chamber filled with Krebs buffer (composition in mmol/l: 118.4 NaCl, 4.7 KCl, 2.5 CaCl2, 1.2 KH2PO4, 1.2 MgSO4, 24.9 NaHCO3, and 11.1 D-glucose), with one end fixed to a tissue holder and the other secured to a force transducer. The force transducer was connected to an appropriately calibrated four-channel polygraph (Power-Lab; AD Instruments, Sydney, NSW, Australia), in which the transducer output was recorded. The corpus cavernosal strips were kept in the organ bath with Krebs solution maintained at 36.5° C. by a thermo-regulated water circuit and by continuously bubbling with a mixture of 95% O2 and 5% CO2. Each corporal strip was stretched to an optimal isometric tension of 1.0 g and was equilibrated for 60 min. During the equilibration, the tissues were washed with fresh Krebs solution every 15 min, and the tension was adjusted if necessary.
The vasodilatory effect of LDD175 was studied by cumulative addition of the sample at concentrations ranging from 10^−7 to 10^−4 M to endothelium-intact strips and endothelium-denuded strips after pre-contraction with 10^−5 M phenylephrine (PE). The endothelial lining of the corpus cavernosum was removed by rubbing the strip between the thumb and index finger for 20 seconds and soaking the same in 0.3% solution of 3[(3-cholamidopropyl)-dimethylammonio]-l-propanesulphonate (CHAPS) for 10 seconds. It was confirmed whether the endothelium was functionally completely removed for all strips by pre-contracting the strips with 10^−5 M […] PE and then adding acetylcholine (10^−6 M) thereto. […] After the addition of IbTX, LDD175 was added to strips pre-contracted with PE. The relaxation effect of the PDE5 inhibitor (udenafil, 10^−6 and 10^−5 M) was also separately measured in the same manner, and compared to that of LDD175. The synergistic relaxation effect between 10^−5 M LDD175 and 10^−6 M udenafil was also investigated.

BKCa channel = target: T1, BKCa channel (Homo sapiens, UniProt Q12791); assay: Whole-cell patch-clamp recording of BKCa currents in cultured human CSM cells; format: cell-based; conditions: for activation of outward rectifying K+ currents (whole-cell), increase vs. control: at +60 mV
T1 construct: Homogeneous explant cell cultures of human corporal smooth muscle (CSM) cells were prepared; endogenous in cells; host or cells: primary explant cultures of human corporal smooth muscle (CSM) cells from erectile dysfunction patients
Method: Human corporal tissues were obtained from the corpus cavernosa of patients with organic erectile dysfunction undergoing implantation of penile prostheses. Homogeneous explant cell cultures of human corporal smooth muscle (CSM) cells were prepared as follows (Palmer et al., 1994; Sung et al., 2011). Radial sections of approximately 3×3×10 mm were excised from the mid-penile shafts of the respective resected sample. These samples were tissues including smooth muscles, endothelium, and connective tissues, with occasional nerve fibers. The tissues were washed, cut into 1-2 mm pieces, and placed in tissue culture dishes filled with Dulbecco's modified Eagle's medium (DMEM, Gibco, Carlsbad, Calif., USA) supplemented with 10% fetal bovine serum and antibiotics (100 units/mL penicillin, streptomycin; Gibco), under 5% O2 and 5% CO2. After the explants were attached to the substrate (usually 1-2 days), additional medium was added. The smooth muscle cells were observed migrating from the explants, and underwent division. The cells were subsequently detached via a trypsin/EDTA protocol to establish secondary cultures from the explants. These cultures were morphologically homogeneous. The cobblestone morphology, which is the characteristic of endothelial cells, and the flattened and spread-out shape, which is the characteristic of fibroblasts, were not observed. Cellular homogeneity was further verified by observing smooth muscle-specific α-actin and myosin immuno-responsiveness. While the cultures were maintained for four or more passages, all measured pharmacological and molecular properties were evaluated in the intact tissues that were maintained in the cultures, for example, cyclic adenosine monophosphate formation (Palmer et al., 1994), calcium mobilization (Zhao and Christ, 1995), expression or function of the gap junction protein, connexin (Brink et al., 1996), and K+ channel activity (Lee et al., 1999).
The Ca^2+-activated potassium channel (BKCa) was measured by using the conventional whole-cell patch-clamp technique (Sung et al., 2011). Patch electrodes were made from borosilicate glass capillary tubing (World Precision Instruments, Sarasota, Fla., USA), and had 2.5-5 MO resistance. The cell suspension was placed into a small chamber (0.6 ml) on the stage of an inverted microscope (TMD Diaphot, Nikon, Tokyo, Japan). The membrane currents in smooth muscle cells were recorded using a patch clamp amplifier (Axopatch-1 D, Axon Instruments, Foster City, Calif., USA). The liquid junction potential between the pipette solution and the bath solution was only about 3 mV, and thus uncorrected. In each experiment, whole-cell configuration was not achieved until the seal resistance became larger than 5 GO. The pCLAMP software (Axon Instruments) and Digidata-1322A (Axon Instruments) were used for data acquisition and application of command pulses. Membrane currents were measured during ramping, and filtered at 5 kHz (−3 dB frequency). The current signals were filtered at 5 kHz, digitized, and analyzed on a personal computer using pCLAMP and Origin software (Microcal Software, Northampton, Mass., USA). The standard bath solution was prepared to contain 135 mmol NaCl, 5 mmol KCl, 10 mmol HEPES, 1.8 mmol CaCl2, 1 mmol MgCl2, and 5 mmol glucose, per liter, at pH 7.4 adjusted with NaOH. The pipette (internal) solution was prepared to contain, per liter, 140 mmol KCl, 10 mmol HEPES, 5 mmol K2ATP, 2 mmol MgCl2, 5 mmol ethyleneglycol-bis-[2-aminoethyl ether]-N,N′-tetraacetic acid (EGTA), and 0.5 mmol GTP, at pH 7.2 adjusted with KOH. The Ca^2+-free concentration in the pipette solution was adjusted to 3.15 nM by adding an appropriate amount of CaCl2, determined using the Max Chelator Sliders software (C. Patton, Stanford University).

[2] = tested on: erectile function of rats; assay: In vivo cavernous nerve stimulation model, erectile response; parameters: species or system Sprague-Dawley rats
Method: (§1) The erectile response was measured using Sprague-Dawley rats. The detailed methodology of measuring the erectile response has been described previously (Rehman et al., 1997). The 8-10 wk aged rats were anesthetized with intramuscular injection of Zoletil 100 mg/kg (Virbac, Carros, France), and placed on a thermally regulated surgical table. Systemic arterial blood pressure (ABP) was monitored via carotid artery cannulation (polyethylene-50 tubing). The prostate and bladder were exposed through a midline abdominal incision. The major pelvic ganglion, pelvic nerves, and cavernous nerve were identified as posterolateral to the prostate on each side. An electric stimulator with stainless steel bipolar hook electrodes was placed around the cavernous nerve for electrical stimulation. To monitor intracavernosal pressure (ICP), a 25-gauge cannula was filled with […], connected to polyethylene-50 tubing, and inserted into one side of the crura. Systemic arterial blood pressure (ABP) and intracavernosal pressure (ICP) were measured with a transducer connected to a PowerLab® (AD Instruments, Colorado Spring, Colo., USA), which is a computerized system for data acquisition. Real-time display and documentation of pressure were conducted with Chart™ 6 software. Sub-maximal electrical field stimulation (EFS) was used with 1 V, 2 Hz, 5 ms pulse width, and duration of 60 seconds. Sub-maximal electrical field stimulation was applied 10 min after a series of control (buffer solution alone), LDD175 (10 mg/kg), and udenafil (1 mg/kg) injections. At the end of sub-maximal stimulation, the full response was measured using the EFS of 6 V, 10 Hz, 5 ms pulse width, with duration of 60 seconds. Buffer solution, LDD175, and udenafil were administered at intervals of 30 min. The ratio of maximal ICP to mean arterial BP at the peak of the erectile response was calculated in order to control for variations in ABP.

[3] = tested on: rat model with diabetic erectile dysfunction; assay: Diabetic erectile dysfunction rat model (streptozotocin), intracavernosal pressure; format: in vivo, Sprague-Dawley rats; conditions: for maximal ICP/ABP ratio: 5 V
Method: as §1
The 8-wk aged male Sprague-Dawley rats were administered with an intraperitoneal injection of streptozotocin (65 mg/kg body weight) dissolved in 5 mM citric acid buffer (pH 4.5), thereby inducing insulin dependent diabetes mellitus (IDDM). Rats of the normal control were injected with only 5 mM citric acid buffer (pH 4.5) by the same method. On day 2 of breeding, the rats were fasted for 16 hours, and the blood was collected from the tail vein to conduct the blood glucose test. Only rats with a blood glucose level of 250 mg/de or higher were selected for a diabetes induced group.

BP and heart rate = conditions: cited from earlier work
aortic rings of rats = conditions: cited from earlier work
[4] = sub-maximal EFS, intravenous LDD175 10 mg/kg, n=8

T1 sequence (Q12791 whole entry): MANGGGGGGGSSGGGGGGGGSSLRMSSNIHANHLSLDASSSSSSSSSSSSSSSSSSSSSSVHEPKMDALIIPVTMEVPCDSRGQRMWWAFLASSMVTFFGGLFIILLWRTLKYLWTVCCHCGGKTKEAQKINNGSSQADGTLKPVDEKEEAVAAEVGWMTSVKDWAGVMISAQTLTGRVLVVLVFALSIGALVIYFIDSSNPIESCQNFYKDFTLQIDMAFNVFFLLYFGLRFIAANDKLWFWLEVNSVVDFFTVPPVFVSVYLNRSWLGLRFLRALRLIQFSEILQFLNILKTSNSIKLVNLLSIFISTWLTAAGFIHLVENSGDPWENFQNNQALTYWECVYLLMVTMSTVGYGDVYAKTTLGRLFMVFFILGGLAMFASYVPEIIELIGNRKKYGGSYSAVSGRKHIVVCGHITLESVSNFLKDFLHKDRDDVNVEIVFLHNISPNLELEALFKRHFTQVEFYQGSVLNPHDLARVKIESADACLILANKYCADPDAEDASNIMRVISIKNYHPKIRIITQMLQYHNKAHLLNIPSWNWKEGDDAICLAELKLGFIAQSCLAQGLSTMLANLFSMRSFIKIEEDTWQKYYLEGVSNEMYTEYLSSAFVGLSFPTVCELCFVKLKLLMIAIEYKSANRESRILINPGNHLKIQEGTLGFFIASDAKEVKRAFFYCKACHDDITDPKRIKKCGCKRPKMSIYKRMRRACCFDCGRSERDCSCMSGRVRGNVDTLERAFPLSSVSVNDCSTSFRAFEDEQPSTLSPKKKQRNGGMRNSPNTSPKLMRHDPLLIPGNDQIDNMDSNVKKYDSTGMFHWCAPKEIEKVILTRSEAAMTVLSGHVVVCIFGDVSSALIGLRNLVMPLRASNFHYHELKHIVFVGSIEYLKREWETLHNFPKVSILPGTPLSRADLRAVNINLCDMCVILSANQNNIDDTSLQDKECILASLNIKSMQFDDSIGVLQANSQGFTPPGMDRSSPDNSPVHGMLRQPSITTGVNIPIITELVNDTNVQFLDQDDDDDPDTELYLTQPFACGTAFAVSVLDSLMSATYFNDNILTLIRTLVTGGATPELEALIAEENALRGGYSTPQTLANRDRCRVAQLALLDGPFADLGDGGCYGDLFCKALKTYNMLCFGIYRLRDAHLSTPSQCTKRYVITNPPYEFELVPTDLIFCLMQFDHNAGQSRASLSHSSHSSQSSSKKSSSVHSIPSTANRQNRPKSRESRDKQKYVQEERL

## O=C(O)c1ccc(Cl)c2c1[nH]c1c3ccc(C(F)(F)F)cc3oc12 [LDD175, 4-chloro-7-trifluoromethyl-10H-benzo[4,5]furo[3,2-b]indole-1-carboxylic acid]
[1]; 10^−4 M LDD175, denuded endothelium, n=10
  relaxation response: 41.0±4.9%
[1]; 10^−4 M LDD175, intact endothelium, n=7
  relaxation response: 45.9±6.2%
[1]; 10^−4 M LDD175, strips pre-treated with 100 nM IbTX for 30 minutes, n=7
  relaxation response after IbTX pretreatment: 23.6±3.3%
[1]; 10^−4 M
  relaxation, % of the phenylephrine (PE)-induced contraction: 54.0±3.0% and 54.0±3.1%
[1]; 10^−5 M alone, n=7
  % relaxation of the phenylephrine-induced contraction: 32.7±3.8%
[1]; 10^−5 M
  relaxation, % of the phenylephrine (PE)-induced contraction: 26.3±2.0%
[1]; 10^−6 M
  relaxation, % of the phenylephrine (PE)-induced contraction: 14.5±2.6%
[1]; 10^−7 M
  relaxation, % of the phenylephrine (PE)-induced contraction: 3.7±1.4%
BKCa channel; 0.1 μM, +60 mV, n=10
  peak current density: 30.9±6.5 pA/pF
BKCa channel; 1 μM, +60 mV, n=10
  peak current density: 45.1±8.2 pA/pF
BKCa channel; 10 μM, +60 mV, n=10
  peak current density: 178.5±30.0 pA/pF
BKCa channel; 30 μM, +60 mV, n=10
  peak current density: 257.3±48.3 pA/pF
BKCa channel; 30 μM
  activation of outward rectifying K+ currents (whole-cell), increase vs. control: 952.1%
BKCa channel; 30 μM, −40 mV
  peak current density: 23.9±5.8 pA/pF
  peak current density, fold vs. control: 42.8 fold
BKCa channel; 100 μM, +60 mV, n=10
  peak current density: 265.5±53.4 pA/pF
[2]; during in vivo cavernous nerve stimulation
  BP fluctuation and hemodynamical instability: not observed
[2]; [4]
  area under curve (AUC) of ICP/ABP ratio: 1444.4±133.3
  maximal ICP: 57.8±6.6 mmHg
  maximal ICP/ABP ratio: 45.3±5.8%
[3]; LDD175 5 mg/kg and 10 mg/kg injection groups, 10 mg/kg more effective than 5 mg/kg
  intracavernosal pressure: significantly increased
[3]; TEA 30 mg/kg injected, after 10 minutes LDD175 10 mg/kg
  effect of LDD175 on intracavernosal pressure after BKCa channel inhibitor: completely inhibited
BP and heart rate; 10 mg/kg LDD175, intravenous
  BP and heart rate changes following intravenous administration: did not cause significant changes
BP and heart rate; rat, in vivo
  adverse cardiovascular effects in in vivo animal experiments: no significant adverse cardiovascular effects
Aortic rings of rats
  relaxation of aortic rings: not relaxed

## O=c1[nH]c2cc(C(F)(F)F)ccc2n1-c1cc(C(F)(F)F)ccc1O [NS1619, reference compound]
BKCa channel; 30 μM
  activation of outward rectifying K+ currents (whole-cell), increase vs. control: 880.0%
BKCa channel; 30 μM, −40 mV
  peak current density: 1.5±0.6 pA/pF
  peak current density, fold vs. control: 1.3 fold

## CC[N+](CC)(CC)CC [TEA, tetraethylammonium, reference compound]
BKCa channel
  suppression of LDD175-activated K+ currents: 78.2%

## CCCc1nn(C)c2c(=O)[nH]c(-c3cc(S(=O)(=O)N4CCN(C)CC4)ccc3OCC)nc12 [sildenafil]
[3]; 1 mg/kg, n=6
  maximal ICP/ABP ratio: 55.4±5.2
[3]; 5 mg/kg, n=7
  maximal ICP/ABP ratio: 69.9±5.4

## CCCOc1ccc(S(=O)(=O)NCCC2CCCN2C)cc1-c1nc2c(CCC)nn(C)c2c(=O)[nH]1 (stereo not drawn) [udenafil, reference compound]
[1]; 10^−5 M
  relaxation, % of the phenylephrine (PE)-induced contraction: 67.1±1.7%
[1]; 10^−6 M alone, n=7
  % relaxation of the phenylephrine-induced contraction: 21.6±2.7%
[1]; 10^−6 M
  relaxation, % of the phenylephrine (PE)-induced contraction: 34.5±3.9%
[2]; 1 mg/kg udenafil, sub-maximal EFS
  effect on maximal ICP, maximal ICP/ABP ratio and AUC of ICP/ABP ratio compared with 10 mg/kg LDD175: no difference

## iberiotoxin (QFTDVDCSVSKECWSVCKDLFGVDRGKCMGKKCRCYQ; UniProt P24663 1-37, looked up) [IbTX, reference compound]
BKCa channel; 100 nM IbTX, n=4
  suppression of LDD175-activated K+ currents: 78.1%
